From patent publication US9968573B2, “Endoprosthesis having and active substance coating” (HEMOTEQ AG, priority 2011, dated 2018)
Read-outs that look alike come from different tables or passages of the source.

How the values were obtained:
[1] = test system: L929 cell line; assay: In vitro cytotoxicity, growth inhibition of L929 cell line; assay type: cell-based; details: 68-72 h
Protocol: The cytotoxic effect was tested on the growth inhibition of L929 cell line after incubation period of 68-72 h for 6 different concentrations according to relevant, valid DIN and ISO standards. DMEM 10% FCS was used as a negative control and the positive control was 5% DMSO in DMEM 10% FCS

[2] = test system: Staphylococcus aureus (ATCC 6538); details: Ti-Cylinder, rough surface
Protocol: Then, the minimum inhibitory concentration (MIC) for Staphylococcus aureus (ATCC 6538) is determined over a serial dilution series according to DIN 58940 (Part 7).

[3] = test system: L929 cells; details: Ti-Cylinder, rough surface, 24 h extract, L929 68 h
Protocol: This allows a conclusion on the proliferation of the cells during incubation.

[4] = test system: partially resistant Staphylococcus aureus strains; details: conversion of literature MIC to gentamicin pantothenate per cm^2
Protocol: For this purpose, coarse-blasted titanium cylinders were coated by pipetting with different amounts of ethanolic gentamicin-5-pantothenate solution and after drying the coating mass was determined by weighing. The coated titanium tubes were then γ-sterilized.
Approximate values for the upper limit and lower limit of the amount of coating on the test specimens were derived using data already known to cytotoxicity of gentamicin as a pure substance. […] The upper limit of the samples was determined on the basis of model calculations in combination with experimentally specifically determined data of cytotoxicity of gentamicin sulfate.

[5] = test system: partially resistant Staphylococcus aureus strains; details: gentamicin as a pure substance (Alt et al., 2004); cited from earlier work

O=C(O)c1ccccc1 [benzoic acid]
GI (growth inhibition of the cell line L929) ([1]; c 0.3 mg/mL, n = 3): 10% | GI (growth inhibition of the cell line L929) ([1]; c 0.6 mg/mL, n = 3): 20% | GI (growth inhibition of the cell line L929) ([1]; c 0.9 mg/mL, n = 3): 35% | GI (growth inhibition of the cell line L929) ([1]; c 1.5 mg/mL, n = 3): 50% | GI (growth inhibition of the cell line L929) ([1]; c 2.1 mg/mL, n = 3): 64% | GI (growth inhibition of the cell line L929) ([1]; c 3.0 mg/mL, n = 3): 77%

CCCCCCCCCCCCCCCC(=O)O [palmitic acid]
GI (growth inhibition of the cell line L929) ([1]; c 0.005 mg/mL, n = 3, solvent 0.5% ethanol): 2% | GI (growth inhibition of the cell line L929) ([1]; c 0.01 mg/mL, n = 3, solvent 0.5% ethanol): 5% | GI (growth inhibition of the cell line L929) ([1]; c 0.02 mg/mL, n = 3, solvent 0.5% ethanol): 8% | GI (growth inhibition of the cell line L929) ([1]; c 0.03 mg/mL, n = 3, solvent 0.5% ethanol): 17% | GI (growth inhibition of the cell line L929) ([1]; c 0.04 mg/mL, n = 3, solvent 0.5% ethanol): 22% | GI (growth inhibition of the cell line L929) ([1]; c 0.05 mg/mL, n = 3, solvent 0.5% ethanol): 30%

O=C(O)c1ccccc1O [salicylic acid]
GI (growth inhibition of the cell line L929) ([1]; c 0.1 mg/mL, n = 3): 16% | GI (growth inhibition of the cell line L929) ([1]; c 0.3 mg/mL, n = 3): 19% | GI (growth inhibition of the cell line L929) ([1]; c 0.5 mg/mL, n = 3): 42% | GI (growth inhibition of the cell line L929) ([1]; c 0.8 mg/mL, n = 3): 54% | GI (growth inhibition of the cell line L929) ([1]; c 1.1 mg/mL, n = 3): 67% | GI (growth inhibition of the cell line L929) ([1]; c 1.3 mg/mL, n = 3): 74%

Gentamicin-Penta-Pantothenate
calculated MIC ([2]; 20 μg/cm^2): 50 µg/mL | calculated MIC ([2]; 50 μg/cm^2): 62.5 µg/mL | calculated MIC ([2]; 100 μg/cm^2): 31.25 µg/mL | Growth Inhibition ([3]; 700 μg/cm^2): 23% | Growth Inhibition ([3]; 800 μg/cm^2): 18% | Growth Inhibition ([3]; 900 μg/cm^2): 20% | mathematically required minimum dose (lower limit) [4]: 28 μg/cm^2

calcium pantothenate [Ca pantothenate]
GI (growth inhibition of the cell line L929) ([1]; c 0.3 mg/mL, n = 3): 0% | GI (growth inhibition of the cell line L929) ([1]; c 0.6 mg/mL, n = 3): 0% | GI (growth inhibition of the cell line L929) ([1]; c 1.2 mg/mL, n = 3): 4% | GI (growth inhibition of the cell line L929) ([1]; c 1.8 mg/mL, n = 3): 7% | GI (growth inhibition of the cell line L929) ([1]; c 2.4 mg/mL, n = 3): 1% | GI (growth inhibition of the cell line L929) ([1]; c 3.0 mg/mL, n = 3): 2%

gentamicin
minimum inhibitory concentration [5]: 64 µg/mL

gentamicin sulfate
GI (growth inhibition of the cell line L929) ([1]; c 0.3 mg/mL, n = 3): 4% | GI (growth inhibition of the cell line L929) ([1]; c 0.6 mg/mL, n = 3): 8% | GI (growth inhibition of the cell line L929) ([1]; c 1.2 mg/mL, n = 3): 12% | GI (growth inhibition of the cell line L929) ([1]; c 1.8 mg/mL, n = 3): 12% | GI (growth inhibition of the cell line L929) ([1]; c 2.4 mg/mL, n = 3): 22% | GI (growth inhibition of the cell line L929) ([1]; c 3.0 mg/mL, n = 3): 29%
